Patent publication US20210161883A1, “EZH2 INHIBITOR-INDUCED GENE EXPRESSION” (Constellation Pharmaceuticals, Inc., priority 2017, published 2021)
“Also recorded” adds a separate entry of the source.

Assays:
[1] = system: global H3K27me3 levels in Karpas-422 GCB-DLBCL cells; assay: H3K27me3 western blotting in Karpas-422 cells treated with EZH2 inhibitors; format: cell-based, human; details: 1.5 μM, 4 days, vs DMSO, total H3 as control
Procedure: Lymphoma cell lines were grown in 10 ml cultures (as described in 2.1). […] After drug treatment, cells were centrifuged at 500×g for 3 min, supernatant was removed, and cell pellet was resuspended in 0.75 ml Trizol Reagent (Life Technologies, catalog #15596-026). RNA was extracted as per the manufacturer's protocol, resuspended in nuclease-free water, quantified using a NanoDrop 2000 UV-vis spectrophotometer (Thermo Scientific), and sent to Ocean Ridge Biosciences (http://www.oceanridgebio.com/) for RNA-sequencing. […]
In order to detect potential EZH2 inhibitor-mediated gene expression changes that could serve as a manifestation of target engagement, Karpas-422 GCB-DLBCL cells were treated with vehicle (dimethyl sulfoxide; DMSO) or Compound 1 for 4 days. […] The samples that were committed to RNA-sequencing were analyzed for changes in H3K27me3 levels by western blotting. […]

[2] = system: RL xenograft (EZH2 inhibitor-insensitive GCB-DLBCL cell line); assay: RL mouse xenograft tumor volume; format: in vivo; details: 200 mg/kg twice daily, 18 days
Procedure: (§1) To verify the gene signature as a readout of target engagement and not phenotypic responsive, an EZH2 inhibitor-insensitive GCB-DLBCL cell line, RL, was utilized in a mouse xenograft model. The RL xenograft bearing mice were treated twice daily with 200 mg/kg Compound 2 or vehicle control for 18 days. […] Tumors were harvested 6 hours post-last dose on day 18 of treatment and processed and analyzed using the QuantiGene® Plex assay, as described above.

RL xenograft = assay: Multiplexed QuantiGene assay of signature genes in RL mouse xenograft tumors; format: in vivo; details: 200 mg/kg twice daily, day 18, tumors harvested 6 hours post-last dose
Procedure: as §1
(§2) For each gene in each sample, the background median fluorescence intensity (MFI) value (recorded on the Luminex Magpix) was subtracted from the gene's measured MFI value. […]
(§3) Following regularization, the data from each well was processed independently by first generating a normalization factor by taking the geometric mean of regularized background-subtracted MFI values for 4 housekeeping genes (ACTB, POLR2A, PPIB, TBP). […] If more than 1 technical replicate was run for an individual sample, an average value was then calculated for each gene. These values were then converted to log 2 space, and log 2 fold change values were determined by subtracting vehicle/control values from treated values. […]
To determine the statistical significance of the engagement score, a phenotype permutation test was performed by randomly assigning the empirically determined expression values for each gene to the control or treated condition. […]

[3] = system: Karpas-422 GCB-DLBCL cells; assay: RNA-sequencing gene expression profiling of Karpas-422 cells; format: cell-based, human; details: 1.5 μM, 4 days
Procedure: Lymphoma cell lines were grown in 10 ml cultures (as described in 2.1). Cells were treated with 0.1% DMSO, 1.5 μM Compound 1 or in the presence of 1.5 μM other EZH2 inhibitors such as GSK126 and EPZ6438 for 4 days. After drug treatment, cells were centrifuged at 500×g for 3 min, supernatant was removed, and cell pellet was resuspended in 0.75 ml Trizol Reagent (Life Technologies, catalog #15596-026). RNA was extracted as per the manufacturer's protocol, resuspended in nuclease-free water, quantified using a NanoDrop 2000 UV-vis spectrophotometer (Thermo Scientific), and sent to Ocean Ridge Biosciences (http://www.oceanridgebio.com/) for RNA-sequencing. Cell samples were collected and total RNA was prepared (see 2.2). […] (2) 7 DLBCL cell lines treated for 4 days with GSK343 (generated in two separate experiments, with HT and SUDHL6 comprising the first experiments, the other 5 cell lines in a second experiment. For the HT and SUDHL6 cell samples in dataset 2, reads were aligned to the hg19 genome using bowtie version 0.12.9. The other datasets were aligned to the hg19 genome with Tophat 1.4.1 The aligned read files were sorted and duplicates removed using sort and rmdup functions from samtools version 0.1.182. See Li, H. et al. The Sequence Alignment/Map format and SAMtools. Bioinformatics 25, 2078-2079 (2009). […]

Karpas-422 cells = assay: Multiplexed QuantiGene assay of EZH2-controlled signature genes in Karpas-422 cells in vitro; format: cell-based, human; details: 1.5 μM, 4 days, vs DMSO
Procedure: The gene list described in Table 2 was submitted to Affymetrix, and a multiplexed QuantiGene® assay (https://www.ebioscience.com/application/gene-expression/quantigene-plex-assay.htm) probe set on the basis was generated specific to the human genome (see Appendix B). The primer and probe sequences used to generate the multiplex assay were not made available by the vendor.
In addition to validating the assay using a Karpas-422 mouse xenograft model, RNA from Karpas-422 cells treated with 1.5 μM Compound 1 for 4 days was also used. Samples were processed and quantitated as described above. […]
as §2, §3

Karpas-422 xenograft = assay: Multiplexed QuantiGene assay of signature genes in Karpas-422 mouse xenograft tumors; format: in vivo
Procedure: (§4) FIGS. 4A and B illustrate a comparison of Compound 1-mediated H3K27me3 level and gene expression changes in phenotypically responsive Karpas-422 xenografts where (A) represents tumor samples (n=4) from a Karpas-422 mouse xenograft experiment in which mice were dosed twice daily, orally with vehicle, 100 or 200 mg/kg of Compound 1 for 4, 7, or 14 days, and were analyzed by ELISA assays to determine H3K27me3 levels; and (B) is the same tumor samples described in (A) (n=4), but were analyzed by a multiplexed QuantiGene® assay for the transcript levels of 50 genes, 4 of which were housekeeping.
For isolation of RNA from tissues: Tumor samples from a Karpas-422 mouse xenograft experiment in which mice were dosed BID with vehicle, 100 or 200 mpk Compound 1 for 4, 7, or 14 days, were obtained. Tumors were frozen in liquid nitrogen, then pulverized. A small aliquot of frozen, pulverized tissue was resuspended in 600 μl buffer RLT (Qiagen) containing 65 mM DTT, applied to a QIAShredder column (Qiagen), and centrifuged for 3 min at 20,000×g. […] RNA was eluted in nuclease-free water, and concentrations were normalized following quantitation on a NanoDrop 2000 UV-vis spectrophotometer.
Initial tests were performed to determine the linearity of the QuantiGene® Plex Set, followed by full validation of the assay showing time- and dose-dependent gene expression changes in a mouse xenograft treated with Compound 1. […] The QuantiGene® assay was performed as per the manufacturer's protocol, and quantitated on a Luminex Magpix. […]
as §2
as §3, with “gene.” for “gene. These values were then converted to log 2 space, and log 2 fold change values were determined by subtracting vehicle/control values from treated values.”

[4] = system: H3K27me3 levels in Karpas-422 xenografts; assay: H3K27me3 ELISA of Karpas-422 mouse xenograft tumor samples; format: in vivo; details: Karpas-422 xenograft, 100 or 200 mg/kg BID oral
Procedure: as §4

For `CCC(C)n1cc(C)c2c(C(=O)NCc3c(C)cc(C)[nH]c3=O)cc(-c3ccc(N4CCNCC4)nc3)cc21` (stereo not drawn) [GSK126, reference compound], which “global H3K27me3 levels (western blotting)” value [1] is on record?
The value was “substantial loss of H3K27me3”.

Which “tumor volume vs vehicle-treated mice” value [2] does the source give for `CCS(=O)(=O)N1CCC([C@@H](C)n2c(C)c(C(=O)NCc3c(OC)cc(C)[nH]c3=O)c3ccccc32)CC1` [Compound 2] here?
Its value is “No reduction in tumor volume”.

And the “gene signature score (QuantiGene)” value (RL xenograft)?
The value was “statistically significant gene signature score”.

What does the source list for `COc1cc(C)[nH]c(=O)c1CNC(=O)c1c(C)n([C@H](C)C2CCN(CC(F)(F)F)CC2)c2ccccc12` [Compound 1, (R)—N-((4-methoxy-6-methyl-2-oxo-1,2-dihydropyridin-3-yl)methyl)-2-methyl-1-(1-(1-(2,2,2-trifluoroethyl)piperidin-4-yl)ethyl)-1H-indole-3-carboxamide]?
global H3K27me3 levels (western blotting) [1]: effectively reduced global H3K27me3 levels; gene expression changes compared with those of other EZH2 inhibitors (GSK126, EPZ-6438) [3]: remarkably similar; number of genes with significantly changed expression ([3]; vs DMSO, log 2 fold change >0.8, p<0.05): 604 genes; signature gene expression (QuantiGene) (Karpas-422 cells): significant increase and decrease of signature gene expression; signature gene expression in tumors vs vehicle-treated tumors (Karpas-422 xenograft; 100 or 200 mg/kg BID oral, 4, 7 and 14 days, tumors harvested 6 hours post last dose): significant induction of signature genes in a dose- and time-dependent manner; also recorded: significant alteration of signature genes; also recorded: significantly induced EZH2-target genes; gene expression signature (aggregate gene score), treatment arms vs vehicle arms (Karpas-422 xenograft; 100 or 200 mg/kg BID oral, all three time points (4, 7, 14 days)): robust and statistically significant change; magnitude of signature gene expression changes in tumors compared with cells treated in vitro (Karpas-422 xenograft; 4 days, 100 mg/kg BID and 200 mg/kg BID, vs cells at 1.5 μM for 4 days): did not show the same magnitude of signature gene expression changes; H3K27me3 levels normalized to total histone H3 (ELISA) ([4]; 14 days, t-test p<0.05 vs vehicle): significant reduction in H3K27me3 levels; H3K27me3 levels normalized to total histone H3 (ELISA) ([4]; earlier time points (4, 7 days)): not statistically significant
